Laboratory results reported in article PMC5532363, “Synergistic blending of high-valued heterocycles inhibits growth of Plasmodium falciparum in culture and P. berghei infection in mouse model” (Scientific Reports, 2017).
Read-outs that look alike come from different tables or passages of the source.

What was measured:
P. berghei NK65 = test: Modified Peter's 4-day suppressive test in P. berghei NK65 infected Swiss albino mice; type: in vivo, Plasmodium berghei; conditions: 6h/6u 50 mg/kg, artemisinin 5 mg/kg, s.c. for four consecutive days, n = 6/group
Description: The antimalarial effect of two active analogues, 6h and 6u (administered at 50 mg/kg of body weight), was determined in mice infected with P. berghei NK65, a strain, which results in high levels of blood-stage parasitemia. […] However, the 6u analogue had better antimalarial efficacy than the 6h analogue (Fig. 6A). As such, we then evaluated the efficacy of 6u (50 mg/kg) in combination with artemisinin (5 mg/kg of body weight) at reduced dosage in the murine malaria model. […] The median survival times of animals treated with Pht 6u alone, as well in combination with ART were 23 and 27.5 days, respectively (P<0.001).
Figure 6 Antimalarial effect of Pht analogs (6h and 6u) alone and in combination with Artemisinin (6u and ART) on parasitemia and survival in mice infected with P. berghei NK65. Mice were injected with 1 × 10^7 P. berghei infected RBCs. After 48 hours mice were treated with control (PBS: untreated), 6h and 6u (alone), and 6u in combination with artemisinin (all injected subcutaneously) for four consecutive days. The % of parasitemia was determined for the groups on days 5, 8 and 15 by randomly selecting 10 different optical fields on blood smears. (A) Administration of 6h and 6u (alone), and 6 u in combination with ART. Data are the mean ± SEM from six animals per treatment group. (B) Survival in the treatment groups (n = 6/group). (C) Photomicrograph of blood smears of untreated versus treatment groups at day 15 post infection (100x magnification). ART, Artemisinin; *P < 0.05. TEXT PRINTED IN THE PICTURE: (B) Phthalimide 6h: MST- 19.5 | (B) Phthalimide 6u: MST- 23 | (B) Artemisinin: MST- 21.5 | (B) Phthalimide 6u+Artemisinin: MST- 27.5
All animal experiments were performed in female Swiss albino mice (4 to 5 weeks old, weighing 25 to 30 g). The animals were housed under standard controlled conditions at 25 °C with a 12-h light-dark cycle and access to sterilized food pellets and water. All experiments were carried out in accordance with the standard procedures approved by the Animal Ethics Committee of the University of Delhi South Campus, under the Control and Supervision of Experiments on Animals (CPCSEA), Ministry of Social Justice and Empowerment, Government of India. […] The antimalarial activity was carried out in accordance with a slightly modified version of the Peter’s 4-day suppressive test[43]. The animals were assigned to each group (n = 6). Subsequently, after 48 hour of postinfection, the parasitemia level reached 1 to 2%, and all the groups of mice were treated by subcutaneous (s.c.) injection with compounds 6h and 6u alone as well in combination with artemisinin solubilized in DMSO. One group was kept as a control and treated with physiological saline. The efficacy of the treatment was monitored by measuring the parasitemia and survival on days 5, 8 and 15 posttreatments by obtaining thin smears of blood withdrawn from the tail vein of infected mice and staining with 10% Giemsa. The level of parasitemia was determined by counting infected and noninfected erythrocytes from 10 to 15 randomly selected optical fields at 100x magnification and expressed as the number of infected erythrocytes per 100 erythrocytes. The survival of mice was recorded and observed for external symptoms, such as change in body weight, ruffled fur, lethargy and paralysis, until 30 or 40 days posttreatment. The reduction in the level of parasitemia was taken as the index for the curative activities of the drugs. The percentage of parasitemia was calculated manually with the Cell Counting Aid software[44] using the formula (total no. of parasitized RBCs)/(total no. of RBCs) × 100.
For in-vivo experiments, statistical differences between two groups were determined by Student’s t test and between multiple groups using one-way analysis of variance (ANOVA), with P values of <0.05, by GraphPad Prism (version 5.01; GraphPad Software, Inc., CA). […]

[1] = system: P. falciparum 3D7 (Pf3D7), CQ sensitive; test: SYBR Green I growth inhibition assay, asynchronous P. falciparum 3D7 culture; type: cell-based, Plasmodium falciparum; conditions: SYBR Green, mean of three experiments, NDR / No IC50 = no dose response
From the text: (§1) Antimalarial activity of all the listed Pht analogues was initially assessed on asynchronous cultures of P. falciparum 3D7 (Pf3D7) clone using the SYBR Green assay. […] The mean IC50 values are based on three separate experiments (Table 1).
(§2) The laboratory-adapted P. falciparum strains 3D7 (Africa; CQ sensitive) and W2 (Africa; CQ resistant), were acquired from Malaria Research and Reference Reagent Resource Center (MR4) (Manassas, VA, USA) and maintained with type O +ve erythrocytes suspended in continuous complete culture medium as described. Complete culture media consisted of 10.43 g/litre of RPMI 1640-HEPES supplemented with 10% (vol/vol) human AB serum, 92.6 mg/litre L-glutamine, 50 mg/liter hypoxanthine, 2 g/litre sodium bicarbonate (Sigma-Aldrich, St. Louis, MO). Incubation of cultures was at 37 °C and maintained in a low oxygen atmosphere (5% O2, 5% CO2, 90% N). The levels of parasitemia in the cultures were maintained at between 2 and 10%, with 5% hematocrit. Media was changed after every 24 hours and parasitemia monitored every 48 hours. Synchronous cultures were prepared by sorbitol lysis. Stock solutions of the Pht, Pht analogues, and DHA were prepared in absolute dimethyl sulfoxide (DMSO) while CQ was prepared in distilled water. The prepared drug stock solutions were used immediately or stored at −80 °C for not longer than one month before use. Stock solutions were further diluted in serum free RPMI 1640 media (stock solution solvent final conc. 0.05%) before performing a 2-fold serial dilution to achieve dose ranges of 0.2 µM to 100 µM (Pht and derivatives), 7.8 to 2,000 nM (CQ) and 0.17 to 87.5 nM (DHA). 25 μL of the drug diluents were aliquoted into 96 well plates and used immediately. Alternatively, the stock solutions were diluted in distilled water, 2-fold serial dilution performed on a 96 well plate and allowed to air dry in a laminar flow hood after which dried plates were stored at 4 °C until use. SYBR Green I assay technique with additional modification was used for drug susceptibility testing of the parasites. Parasite cultures of >1% parasitemia were diluted to 1% parasitemia and 2% hematocrit and 200 μL were transferred onto drug pre-dosed plates and incubated at 37 °C for 90 hours, [40]. Drug exposure was terminated by freezing the drug plates at −80 °C for 24 hours after which lysis buffer containing (per liter) 100 mM Tris-HCl, 10 mM EDTA, 0.016% Saponin, 1.6% triton X-100 and 20X SYBR Green I dye was added and the sample incubated for 2 hours in the dark. Relative fluorescence units (RFU) were read using the Perkin Elmer Wallac 1420 fluorescence plate reader, with excitation and emission wavelengths of 485 nm and 535 nm respectively. The readouts values were aligned with corresponding drug doses and analysis performed by Graph-pad Prism software. The drug concentrations (x value) were transformed using X = Log[X] and plotted against the counts (y values) and the data analysed by non-linear regression (sigmoid dose-response/variable slope equation) to yield the IC50.

P. falciparum 3D7 = test: Fixed-ratio isobologram drug interaction assay with CQ/DHA, 3D7; type: cell-based, Plasmodium falciparum; conditions: Pf3D7
Description: (§3) A modified fixed-ratio isobologram method was used to assess interaction between CQ/DHA and Pht analogues. Briefly, a total of 5 solutions containing fixed-ratio mixtures of Pht derivatives with either CQ or DHA were prepared in the following ratios: 1:1, 2:1, 3:2, 2:3, and 1:4. The starting concentrations for ten 2 fold-serial dilutions across the microtiter plate were assigned so that the IC50 of each drug would be in the 5th serial dilution of the plate. Each drug was tested alone and at fixed ratios of its IC50. The assessment of drug interaction was based on the calculation of the fractional inhibitory concentration (FIC) of two drugs in the […]. FIC was calculated for each association by dividing the IC50 of the drug in the combination by the IC50 of the drug alone.

P. falciparum W2 = test: Fixed-ratio isobologram drug interaction assay with CQ/DHA, W2; type: cell-based, Plasmodium falciparum; conditions: PfW2
Description: as §3

CQ resistant PfW2 strain = test: SYBR Green I growth inhibition assay, P. falciparum W2 culture; type: cell-based; conditions: Plasmodium falciparum
From the text: as §1
as §2, with “Drug exposure was terminated by freezing the drug plates at −80 °C for 24 hours after which lysis buffer containing (per liter) 100 mM Tris-HCl, 10 mM EDTA, 0.016% Saponin, 1.6% triton X-100 and 20X SYBR Green I dye was added and the sample incubated for 2 hours in the dark.” left out

[2] = MTT cytotoxicity assay in U937 cells; type: cell-based; conditions: human; for selectivity ratio at 24 h: U937 cells (CC50) versus 3D7 parasites (IC50), CC50 U937 / IC50 3D7, SI > 2 = low cytotoxicity, read-out: selectivity index (SI); for CC50 at 24 h: U937 cells, MTT
Description: As a final step in the investigational pipeline, we determined the cytotoxic effect of the four active analogues (6a, 6h, 6m and 6u) in U937 cell lines by measuring 50% cytotoxic concentrations (CC50) and calculating selectivity indices (SIs) as a measure of toxicity in human cells.
Cytotoxicity of the 4 select Pht compounds on human cells was evaluated by assessing cell viability of the U937, a human acute monocyte leukemia cell lines by use of the MTT assay. U937 was acquired from American Type Culture Collection (ATCC, Rockville, MD) and maintained in RPMI 1640 medium supplemented with 10% fetal bovine serum, and Penicillin-streptomycin (1% v/v) (Gibco, UK) at 37 °C. Robust U937 cells at a concentration of 80,000 cells/ml were plated into 96-well plates and incubated for 24 hours. Six concentrations of the Pht compounds were added in a two-fold dilution from starting concentration of 50 to 1.56 µM in triplicate and incubated with the cells for 24 hours. This was followed by addition of 10 µL MTT solution (5 mg/mL) into each well, incubated for 4 hour at 37 °C followed by addition of 50 µL DMSO to dissolve the formazan precipitate according to manufacturer’s protocol. Aliquots were drawn from each well and color intensity was measured spectrophotometrically in an ELISA plate reader (Biotek, ELx800) at 540 nm. The cell viability ratio was calculated by the following formula: % cytotoxicity = [Mean OD of test cells] − [Mean OD of control cells]/[Mean OD of control cells] × 100. Viability counts were then plotted against corresponding drug concentrations to yield cytotoxicity (CC50) through non-linear regression (sigmoid dose-response/variable slope equation). Drug CC50 values were then used to define selectivity indices, which is a measure of drug safety in human relative to parasitic cells and was calculated as the ratio of the CC50 value determined on the U937 cells (cytotoxicity) and the IC50 value determined on parasite growth inhibition 3D7 (anti-plasmodial activity). In this study, we set SI > 2 as cut-off as an indicative of low drug cytotoxicity.

[3] = system: synchronized Pf3D7 strain cultures (rings, trophozoites); test: Stage-specificity and parasitemia titres on synchronized Pf3D7 cultures (Giemsa smears); type: cell-based, Plasmodium falciparum; conditions: for effect on ring stage parasitemia: 6 hours post exposure of ring stages; for effect on ring stage parasitemia / effect on mature blood stage parasite titres (parasitemia): Fig. 5; for effect on mature blood stage parasite titres (parasitemia): 16 hours after incubation with trophozoite stage; for effect on progression from trophozoites to schizonts / schizont morphology: concentration = individual IC50, up to 16 hours exposure; for effect on ring-stage growth and morphology: newly synchronized rings, concentration = individual IC50, monitored at 6 and 12 hours
Description: Next, we sought to determine stage-specificity of the antiplasmodial activity of the four active analogues (6a, 6h, 6m and 6u) on synchronized Pf3D7 strain cultures at 2% hematocrit and 1% parasitemia, with concentrations corresponding to individual drug IC50. To determine the effect of the compounds on both early and late ring stage parasites, the treatment was conducted on newly synchronized rings for 12 hours, and drug effect on parasite growth and morphology was monitored at 6 and 12 hours after exposure. Similarly, early trophozoites were exposed to each compound and incubated for 16 hours, and monitored at 6 and 16 hours post-exposure. The effect of the compounds on parasite morphology and development was compared in exposed and unexposed drug wells (Figs 3 and 4).
Figure 5 Effect of Pht analogues on parasite growth titres (Note: Graphical description of the inhibitory effect of select analogues on parasite growth titres 6 hours after incubation with ring-stages and 16 hours after drug incubation with trophozoite stage. Parasitemia percentage was derived by counting the number of infected erythrocytes from a total of 2,000 erythrocytes on Giemsa stained thin smears from each experiment. Bar diagrams represent the average of three different experiments).

[4] = Plasmodium falciparum, 3D7, Pf3D7, asynchronous culture, read-out: IC50 (SE) µg/mL

C[C@@H]1CC[C@H]2[C@@H](C)C(=O)O[C@@H]3O[C@@]4(C)CC[C@@H]1[C@]32OO4 [Artemisinin, reference compound]
median survival time (MST) (P. berghei NK65): 21.5 days

CC(C)C[C@H](c1nc2ccccc2n1Cc1cn(-c2ccccc2)nn1)N1C(=O)c2ccccc2C1=O [Compound 6a]
IC50 [1, 4]: 0.7 µg/mL
interaction when combined with CQ and DHA (P. falciparum 3D7): synergistic activity
interaction when combined with CQ and DHA (P. falciparum W2): synergistic activity
IC50 (CQ resistant PfW2 strain): 700 nM
selectivity ratio at 24 h [2]: 1.01 ± 1.5
CC50 at 24 h [2]: 910 ± 320 nM
effect on ring stage parasitemia [3]: reduction in ring stage parasitemia
effect on mature blood stage parasite titres (parasitemia) [3]: negligible
effect on progression from trophozoites to schizonts / schizont morphology ([3]; early trophozoites): did not interfere with development of parasite progression from trophozoites to schizonts
effect on ring-stage growth and morphology [3]: active against ring-stage forms

CC(C)[C@H](c1nc2ccccc2n1Cc1cn(-c2ccc(F)cc2)nn1)N1C(=O)c2ccccc2C1=O [Compound 6m]
IC50 ([1]; Pf3D7, asynchronous culture, read-out: IC50 (SE) µM): 3.5 µM
IC50 ([1]; Plasmodium falciparum, 3D7, Pf3D7, asynchronous culture, read-out: IC50 (SE) µM): < 5.14 µM
IC50 [1, 4]: 1.8 µg/mL
IC50 (CQ resistant PfW2 strain): 3800 nM
selectivity ratio at 24 h [2]: 1.11 ± 1.5
CC50 at 24 h [2]: 780 ± 320 nM
effect on ring stage parasitemia [3]: did not affect parasite growth
effect on mature blood stage parasite titres (parasitemia) [3]: reduction in parasitemia
effect on trophozoites ([3]; early trophozoites, concentration = individual IC50, 6 hours after exposure): trophozoite growth did not appear to be affected
effect on progression from trophozoites to schizonts / schizont morphology ([3]; early trophozoites): schizonts appeared less granular and lacked distinguishable merozoites
effect on ring-stage growth and morphology [3]: did not arrest ring-stage maturation
